Measurements from patent publication US20090082249A1, “NUTRITIONAL SUPPLEMENT FOR A CATEGORY OF HIV PATIENTS” (N.V. Nutricia, priority 2005, published 2009).

Tested on: intestinal tight junction permeability
Experiment: Inflammatory mediated intestinal tight junction permeability

CCCCC/C=C\C/C=C\C/C=C\CCCCC(=O)O [GLA, gamma linolenic acid]
reduction of inflammatory mediated intestinal tight junction permeability: effectively reduce
